Publication PMC7737769, “Pharmacological inhibition of syntenin PDZ2 domain impairs breast cancer cell activities and exosome loading with syndecan and EpCAM cargo” (Journal of Extracellular Vesicles, 2020)

What was measured:
[1] = test system: T1, syntenin‐Frizzled7 complex (GST-SyntFL / FZD7 peptide); experiment: HTRF assay, syntenin-Frizzled 7 interaction; type: biochemical, human
T1 construct: residues 1–298 or syntenin full‐length (FL) for HTRF assays; made in house; host or cells: E. coli ER2566
Description: HTRF assays were performed in white 96Well Small VolumeHiBase Polystyrene Microplates (Greiner) with a total working volume of […], as described previously (Milhas et al., 2016). Briefly, compounds were firstly dispensed into the wells at 400 µM for the primary screen or with serial DMSO dilutions for IC50 measurement assays. Primary screening assays have been performed in monoplicate while IC50 measurements were performed in triplicates. All HTRF reagents were purchased from CisBio Bioassays and reconstituted according to the supplier protocols. The plates were spun for 3 min at 500 × g and then incubated at 4°C for 16 h. The HTRF signals were recorded on a POLAR star Omega plate reader (BMG Labtech) with an excitation filter at 337 nm and fluorescence wavelength measurement at 620 and 665 nm, an integration delay of 60 µs and an integration time of 400 µs. Results were analysed with a two‐wavelength signal ratio: [intensity (665 nm)/intensity (620 nm)] × 10^4. Percentage of inhibition was calculated using the following equation: % inhibition = [(compound signal)–(min signal)]/[(max signal)–(min signal)] × 100, where ‘max signal’ is the signal ratio with the compound vehicle alone (DMSO) and ‘min signal’ the signal ratio without protein B. For IC50 measurements, values were normalized and fitted with Prism (GraphPad software) using the following equation: Y = 100/(1+((X/ IC50)ˆHill slope)).
The search strategy for PDZ2 syntenin inhibitors was based on the PDZ targeted library developed from Enamine compound collection. The PDZ targeted library was developed to cover virtually all PDZ domains. Consequently, to create the syntenin PDZ2 focused library we used two independent paths: docking of the PDZ targeted library against structures of syntenin PDZ2 available in Protein Data Bank and a random selection from the PDZ targeted library. The docking has produced 21 virtual hits, which were added to 118 randomly selected compounds (10% of the pan PDZ library). The resultant set of 139 compounds, syntenin PDZ library was subjected to experimental validation. The primary screen was performed at 400µM using a previously validated Homogeneous Time Resolved Fluorescence (HTRF) assay (Milhas et al., 2016). HTRF is based on Fluorescence Resonance Energy Transfer (FRET) between two fluorescent reagents. In the present case, Anti‐GST‐Terbium antibody and streptavidin‐bound Dynamic2 were used as donor and acceptor respectively. Interactions between GST PDZ‐fusion proteins and biotinylated peptides containing PDZ binding motifs were challenged with the potential inhibitors. In parallel, control experiments were performed with a biotinylated‐GST to verify that compounds were not interfering with the FRET signal in a non‐specific manner. To identify inhibitors of syntenin PDZ interactions, we tested for the effect of the 139 compounds on syntenin‐SDC2 and syntenin‐Frizzled7 complexes (Figure 1a; Table S1). When the HTRF signal dropped below 0.9, inhibition was considered as effective. […] Noteworthy, these compounds had no effect on other PDZ complexes like GRASP55‐JAM‐B or GRASP55‐JAM‐C and Erbin‐Erbb2 or Erbin‐P0071 (Figure 1c).

MCF‐7 SyntKO cells = experiment: Wound-healing (migration) assay, MCF-7 SyntKO; type: cell-based; settings: 100 µM, 24 h
Description: For migration assays, cells were treated with 1 ng/ml of mitomycin (Sigma M4287) overnight to inhibit cell division. Treated cells were plated in Ibidi culture‐inserts (Ibidi Cat‐80206) for 12 h to reach 90%–95% of confluence with or without compounds (100 µM). A wound was created by removing inserts from the dishes. Medium with or without compounds (100 µM) was refreshed to remove dead cells and the cells were observed under an inverted light microscope (Leica SP2) equipped with a camera. Images were taken by MetaMorph software every 10 min for 24 h. Measurements of cell velocity were calculated using the MetaMorph software.

[2] = test system: MCF‐7 cells (exosomal markers); experiment: Western blot of exosomal fractions (exosome cargo); type: cell-based; settings: CAY10594 10 µM, 16 h
Description: For comparative analyses, exosome‐enriched fractions were collected from equivalent amounts of culture medium, conditioned by equivalent amounts of cells. MCF‐7 cells were treated with indicated compounds or with DMSO 0.2% as control, in medium containing exosome‐depleted FCS (10%). After 16 h, cell media were collected and exosomes were isolated by three sequential centrifugation steps at 4 °C: 10 min at 500 × g, to remove cells; 30 min at 10,000 × g, to remove cell debris; and 1h30min at 100,000 × g, to pellet exosomes (exosome‐enriched fraction), followed by one wash with 1400 µl of PBS1X (100,000 × g, 1 h), to remove soluble serum and secreted proteins. Exosomal pellets were then re‐suspended in 100 µl of PBS1X. The lysates from corresponding cultures were cleared by centrifugation at 1500 rpm for 5 min and then resuspended in lysis buffer (TrisHCL pH 7.4 30 mM, NaCl 150 mM, 1% NP40 (IGEPAL), 1 µg/ml aprotinin, 1 µg/ml leupeptin). Although only little variations were observed from sample to sample, exosomal amounts loaded for the western blot were normalized according to the number of parent cells from where exosomes were secreted.
The proteins were heat‐denaturated in Laemmli sample buffer, fractionated in 12.5% or 15% gels by SDS–PAGE and electro‐transferred to nitrocellulose membrane. Membranes were stained with Ponceau red and immunoblotted with the indicated primary antibodies for: CD9 (1/5000), CD63 (1/5000), CD81 (1/5000) and ADAM10 (1/1000) antibodies provided by E. Rubinstein (Charrin et al., 2001) (Université Paris‐Sud UMRS_935, Villejuif); syntenin (Homemade (Kashyap et al., 2015); 1/3000), Tubulin (Sigma‐Aldrich; 1/10,000), ALIX (Homemade (Baietti et al., 2012); 1/500), HSP70 (Santa Cruz Biotechnology; 1/500), Flotillin‐1 (BD Biosciences; 1/1000), EGFR (Cell Signaling; 1/1000), EpCAM (Santa Cruz Biotechnology; 1/200), Fibronectin (BD Biosciences; 1/5000), Src (Cell signaling; 1/1000), TSP1 (Lab Vision; 1/100), SDC1 intracellular domain (Homemade (Baietti et al., 2012); 1/1000), SDC4 intracellular domain (Abnova; 1/2000), and HRP‐conjugated secondary antibodies (Mouse or Rabbit, Thermofisher scientific; 1/10,000). Signals were visualized using Amersham ECL Prime Western Blotting Detection Reagent (GE Healthcare).

[3] = Chemical solubility and stability in PBS; type: physicochemical; settings: aqueous buffer; PBS pH 7.4 22°C

| solubility [3] [µg/mL] | SMILES | GST SyntFL Frizzled 7 (signal ratio) ([1]; 400µM compound, Figure 1c) | HTRF ASSAY GST-SyntFL FZD7 (HTRF signal ratio) ([1]; primary screen, 400 µM compound, signal below 0.9 considered effective inhibition, Table S1) | cell migration (wound closure) (MCF‐7 SyntKO cells) | exosomal ADAM10 signal ([2]; SyntOFF 100 µM) | exosomal CD81 ([2]; SyntOFF 100 µM) | exosomal EGFR signal ([2]; SyntOFF 100 µM) | exosomal TSP1 signal ([2]; SyntOFF 100 µM) | exosomal fibronectin signal ([2]; SyntOFF 100 µM) | incorporation of EpCAM into exosomes ([2]; SyntOFF 100 µM) | incorporation of c‐Src into exosomes ([2]; SyntOFF 100 µM) | amount of exosomal ALIX ([2]; cSyntOFF, C58, SyntOFF 100 µM) | amount of exosomal SDC4 C‐terminal fragment (CTF) ([2]; cSyntOFF, C58, SyntOFF 100 µM) | amount of exosomal syntenin ([2]; cSyntOFF, C58, SyntOFF 100 µM) |
| --- | --- | --- | --- | --- | --- | --- | --- | --- | --- | --- | --- | --- | --- | --- |
|  | CC(C)[C@H](NC(=O)CSc1ccc(Cl)cc1)C(=O)O [Compound C58] | 0.38 | 0.39 | no such effect |  |  |  |  |  |  |  |  |  |  |
| > 2300 | CC(C)[C@H](NC(=O)CCSc1ccc(Cl)cc1)C(=O)O [SyntOFF, (S)‐2‐(3‐(4‐chlorophenylthio)propanamido)‐3‐methylbutanoic acid] |  |  |  | unaffected | that was not the case | unaffected | unaffected | unaffected | markedly decrease | markedly decrease | significantly decreased | significantly decreased | significantly decreased |
